According to US8889591B2, “Herbicidal compositions comprising 4-amino-3-chloro-5-fluoro-6-(4-chloro-2-fluoro-3-methoxyphenyl)pyridine-2-carboxylic acid or a derivative thereof and bromobutide, daimuron, oxaziclomefone or pyributicarb” (Dow Agrosciences LLC, priority 2012, dated 2014):

Legend:
BRAPP = experiment: Postemergence foliar-applied greenhouse weed control, direct-seeded rice system; format: in vivo
Description: (§1) Seeds or nutlets of the desired test plant species were planted in a soil matrix prepared by mixing a loam or sandy loam soil (e.g., 28.6 percent silt, 18.8 percent clay, and 52.6 percent sand, with a pH of about 5.8 and an organic matter content of about 1.8 percent) and calcareous grit in an 80 to 20 ratio. The soil matrix was contained in plastic pots with a volume of 1 quart and a surface area of 83.6 square centimeters (cm^2). When required to ensure good germination and healthy plants, a fungicide treatment and/or other chemical or physical treatment was applied. The plants were grown for 8-22 days in a greenhouse with an approximate 14 h photoperiod which was maintained at about 29° C. during the day and 26° C. during the night. Nutrients (Peters Excel® 15-5-15 5-Ca 2-Mg and iron chelate) were applied in the irrigation solution as needed and water was added on a regular basis. Supplemental lighting was provided with overhead metal halide 1000-Watt lamps as necessary. The plants were employed for testing when they reached the first through fourth true leaf stage.
(§2) Treatments consisted of the acid or esters of 4-amino-3-chloro-5-fluoro-6-(4-chloro-2-fluoro-3-methoxy-phenyl)pyridine-2-carboxylic acid (Compound A), each formulated as an SC (suspension concentrate), and various herbicidal components alone and in combination. Forms of compound A were applied on an acid equivalent basis.
(§3) Other herbicidal components were applied on an active ingredient basis and included diamuron formulated as an EC (emulsifiable concentrate) and oxaziclomefone (technical grade material).
(§4) Treatment requirements were calculated based upon the rates being tested, the concentration of active ingredient or acid equivalent in the formulation, and a 12 mL application volume at a rate of 187 L/ha.
(§5) For treatments comprised of formulated compounds, measured amounts of compounds were placed individually in 25 mL glass vials and diluted in a volume of 1.25% (v/v) Agri-Dex® crop oil concentrated to obtain 12× stock solutions. […] Application solutions were prepared by adding an appropriate amount of each stock solution (e.g., 1 mL) and diluted to the appropriate final concentrations with the addition of 10 mL of an aqueous mixture of 1.25% (v/v) crop oil concentrate so that the final spray solutions contained 1.25+/−0.05% (v/v) crop oil concentrate.
(§6) For treatments comprised of technical compounds, weighed amounts can be placed individually in 25 mL glass vials and dissolved in a volume of 97:3 v/v acetone/DMSO to obtain 12× stock solutions. […] Application solutions can be prepared by adding an appropriate amount of each stock solution (e.g., 1 mL) and diluted to the appropriate final concentrations with the addition of 10 mL of an aqueous mixture of 1.5% (v/v) crop oil concentrate so that the final spray solutions contain 1.25% (v/v) crop oil concentrate. When technical materials are used, the concentrated stock solutions can be added to the spray solutions so that the final acetone and DMSO concentrations of the application solutions are 16.2% and 0.5%, respectively.
(§7) For treatments comprised of formulated and technical compounds, weighed amounts of the technical materials were placed individually in 25 mL glass vials and dissolved in a volume of 97:3 v/v acetone/DMSO to obtain 12× stock solutions, and measured amounts of the formulated compounds were placed individually in 25 mL glass vials and diluted in a volume of 1.5% (v/v) crop oil concentrate or water to obtain 12× stock solutions. […] Application solutions were prepared by adding an appropriate amount of each stock solution (e.g., 1 mL) and diluted to the appropriate final concentrations with the addition of an appropriate amount of an aqueous mixture of 1.5% (v/v) crop oil concentrate so that the final spray solutions contained 1.25% (v/v) crop oil concentrate. […]

LEFCH = experiment: as above; format: in vivo, Leptochloa chinensis (L.) Nees
Description: as §1, §2, §3, §4, §5, §6, §7

FIMMI = experiment: In-water applied greenhouse weed control, transplanted paddy rice system; format: in vivo, Fimbristylis miliacea (L.) Vahl; conditions: in-water application
Experimental: (§8) Weed seeds or nutlets of the desired test plant species were planted in puddled soil (mud) prepared by mixing a shredded, non-sterilized mineral soil (50.5 percent silt, 25.5 percent clay, and 24 percent sand, with a pH of about 7.6 and an organic matter content of about 2.9 percent) and water at a 1:1 volumetric ratio. The prepared mud was dispensed in 365 mL aliquots into 16-ounce (oz.) non-perforated plastic pots with a surface area of 86.59 square centimeters (cm^2) leaving a headspace of 3 centimeters (cm) in each pot. Mud was allowed to dry overnight prior to planting or transplanting. Rice seeds were planted in Sun Gro MetroMix® 306 planting mixture, which typically has a pH of 6.0 to 6.8 and an organic matter content of about 30 percent, in plastic plug trays. Seedlings at the second or third leaf stage of growth were transplanted into 840 mL of mud contained in 32-oz. non-perforated plastic pots with a surface area of 86.59 cm^2 4 days prior to herbicide application. The paddy was created by filling the headspace of the pots with 2.5 to 3 cm of water. When required to ensure good germination and healthy plants, a fungicide treatment and/or other chemical or physical treatment was applied. The plants were grown for 4-22 days in a greenhouse with an approximate 14 h photoperiod which was maintained at about 29° C. during the day and 26° C. during the night. Nutrients were added as Osmocote® (19:6:12, N:P:K+ minor nutrients) at 2 g per 16-oz. pot and 4 g per 32-oz. pot. Water was added on a regular basis to maintain the paddy flood, and supplemental lighting was provided with overhead metal halide 1000-Watt lamps as necessary. The plants were employed for testing when they reached the first through fourth true leaf stage.
(§9) Treatments consisted of the acid or esters of 4-amino-3-chloro-5-fluoro-6-(4-chloro-2-fluoro-3-methoxy-phenyl)pyridine-2-carboxylic acid (compound A) each formulated as an SC and various herbicidal components alone and in combination. Forms of compound A were applied on an acid equivalent basis.
(§10) Other herbicidal components were applied on an active ingredient basis and included daimuron formulated as an EC, bromobutide (technical grade material), and oxaziclomefone (technical grade material).
(§11) Treatment requirements for each compound or herbicidal component were calculated based upon the rates being tested, the concentration of active ingredient or acid equivalent in the formulation, an application volume of 2 mL per component per pot, and an application area of 86.59 cm^2 per pot.
(§12) For formulated compounds, a measured amount was placed in an individual 100 or 200 mL glass vial and was dissolved in a volume of 1.25% (v/v) Agri-Dex® crop oil concentrate to obtain application solutions.
(§13) For technical grade compounds, a weighed amount was placed in an individual 100 to 200 mL glass vial and was dissolved in a volume of acetone to obtain concentrated stock solutions. […] The concentrated stock solutions obtained were diluted with an equivalent volume of an aqueous mixture containing 2.5% (v/v) crop oil concentrate so that the final application solutions contained 1.25% (v/v) crop oil concentrate.
(§14) Applications were made by injecting, with a pipetter, appropriate amounts of the application solutions, individually and sequentially, into the aqueous layer of the paddy. Control plants were treated in the same manner with the solvent blank. Applications were made so that all treated plant material received the same concentrations of acetone and crop oil concentrate.
(§15) The treated plants and control plants were placed in a greenhouse as described above and water was added as needed to maintain a paddy flood. After approximately 3 weeks the condition of the test plants as compared with that of the untreated plants was determined visually and scored on a scale of 0 to 100 percent where 0 corresponds to no injury or growth inhibition and 100 corresponds to complete kill. […]

ECHOR = experiment: as above; format: in vivo, Echinochloa oryzoides (Ard.) Fritsch; conditions: in-water application
Experimental: as §8, §9, §10, §11, §12, §13, §14, §15

ECHCO = experiment: Postemergence foliar-applied greenhouse weed control, direct-seeded rice system; format: in vivo, Echinochloa colona (L.) Link
Description: as §1, §2, §3, §4, §5, §6, §7

ECHCG [1] = experiment: as above; format: in vivo, Echinochloa crusgalli (L.) Beauv.
Description: as §1, §2, §3, §4, §5, §6, §7

IPOHE = experiment: as above; format: in vivo, Ipomoea hederacea Jacq.
Description: as §1, §2, §3, §4, §5, §6, §7

ECHCG [2] = experiment: In-water applied greenhouse weed control, transplanted paddy rice system; format: in vivo, Echinochloa crusgalli (L.) Beauv.; conditions: in-water application; Oxaziclomafone 20 gai/ha alone
Experimental: Weed seeds or nutlets of the desired test plant species were planted in puddled soil (mud) prepared by mixing a shredded, non-sterilized mineral soil (50.5 percent silt, 25.5 percent clay, and 24 percent sand, with a pH of about 7.6 and an organic matter content of about 2.9 percent) and water at a 1:1 volumetric ratio. The prepared mud was dispensed in 365 mL aliquots into 16-ounce (oz.) non-perforated plastic pots with a surface area of 86.59 square centimeters (cm^2) leaving a headspace of 3 centimeters (cm) in each pot. Mud was allowed to dry overnight prior to planting or transplanting. Rice seeds were planted in Sun Gro MetroMix® 306 planting mixture, which typically has a pH of 6.0 to 6.8 and an organic matter content of about 30 percent, in plastic plug trays. Seedlings at the second or third leaf stage of growth were transplanted into 840 mL of mud contained in 32-oz. non-perforated plastic pots with a surface area of 86.59 cm^2 4 days prior to herbicide application. The paddy was created by filling the headspace of the pots with 2.5 to 3 cm of water. […]
as §11
For formulated compounds, a measured amount was placed in an individual 100 or 200 mL glass vial and was dissolved in a volume of 1.25% (v/v) Agri-Dex® crop oil concentrate to obtain application solutions. […]
as §15

CYPIR = experiment: Postemergence foliar-applied greenhouse weed control, direct-seeded rice system; format: in vivo, Cyperus iria L.; conditions: Oxaziclomefone 6.25 gai/ha alone
Description: as §1, with “stage. […]” for “stage.”
as §4
(§16) For treatments comprised of formulated compounds, measured amounts of compounds were placed individually in 25 mL glass vials and diluted in a volume of 1.25% (v/v) Agri-Dex® crop oil concentrated to obtain 12× stock solutions. […]
(§17) For treatments comprised of formulated and technical compounds, weighed amounts of the technical materials were placed individually in 25 mL glass vials and dissolved in a volume of 97:3 v/v acetone/DMSO to obtain 12× stock solutions, and measured amounts of the formulated compounds were placed individually in 25 mL glass vials and diluted in a volume of 1.5% (v/v) crop oil concentrate or water to obtain 12× stock solutions. […]

CYPRO = experiment: In-water applied greenhouse weed control, transplanted paddy rice system; format: in vivo, Cyperus rotundus L.; conditions: in-water application
Experimental: as §8, §9, §10, §11, §12, §13, §14, §15

SCPJU = experiment: Postemergence foliar-applied greenhouse weed control, direct-seeded rice system; format: in vivo, Schoenoplectus juncoides (Roxb.) Palla; conditions: Oxaziclomefone 6.25 gai/ha alone
Description: as §1, with “stage. […]” for “stage.”
as §4, §16, §17

[3] = Daimuron 100 gai/ha alone (Table 2)
[4] = Daimuron 200 gai/ha alone (Table 2)
[5] = Daimuron 400 gai/ha alone (Table 2)

Cc1ccc(NC(=O)NC(C)(C)c2ccccc2)cc1 [Daimuron, N-(4-methylphenyl)-N′-(1-methyl-1-phenylethyl)urea]
Visual Weed Control (%) - 20 DAA BRAPP Obs (BRAPP; Daimuron 100 gai/ha alone): 0%
Visual Weed Control (%) - 20 DAA BRAPP Obs (BRAPP; [3]): 0%
Visual Weed Control (%) - 20 DAA BRAPP Obs (BRAPP; Daimuron 200 gai/ha alone): 0%
Visual Weed Control (%) - 20 DAA BRAPP Obs (BRAPP; [4]): 0%
Visual Weed Control (%) - 20 DAA BRAPP Obs (BRAPP; Daimuron 400 gai/ha alone): 0%
Visual Weed Control (%) - 20 DAA BRAPP Obs (BRAPP; [5]): 0%
Visual Weed Control (%) - 20 DAA LEFCH Obs (LEFCH; Daimuron 100 gai/ha alone): 0%
Visual Weed Control (%) - 20 DAA LEFCH Obs (LEFCH; Daimuron 200 gai/ha alone): 0%
Visual Weed Control (%) - 20 DAA LEFCH Obs (LEFCH; [4]): 0%
Visual Weed Control (%) - 20 DAA LEFCH Obs (LEFCH; Daimuron 400 gai/ha alone): 0%
Visual Weed Control (%) - 20 DAA LEFCH Obs (LEFCH; [5]): 0%
Visual Weed Control (%) - 21 DAA FIMMI Obs (FIMMI; Daimuron 200 gai/ha alone): 10%
Visual Weed Control (%) - 21 DAA FIMMI Obs (FIMMI; Daimuron 400 gai/ha alone): 80%
Visual Weed Control (%) - 21 DAA ECHOR Obs (ECHOR; Daimuron 200 gai/ha alone): 0%
Visual Weed Control (%) - 21 DAA ECHOR Obs (ECHOR; Daimuron 400 gai/ha alone): 15%
Visual Weed Control (%) - 20 DAA ECHOR Obs (ECHOR; Diamuron 400 gai/ha alone): 60%
Visual Weed Control (%) - 20 DAA ECHCO Obs (ECHCO; Daimuron 100 gai/ha alone): 0%
Visual Weed Control (%) - 20 DAA ECHCO Obs (ECHCO; [3]): 0%
Visual Weed Control (%) - 20 DAA ECHCO Obs (ECHCO; Daimuron 200 gai/ha alone): 10%
Visual Weed Control (%) - 20 DAA ECHCO Obs (ECHCO; [4]): 10%
Visual Weed Control (%) - 20 DAA ECHCO Obs (ECHCO; Daimuron 400 gai/ha alone): 10%
Visual Weed Control (%) - 20 DAA ECHCO Obs (ECHCO; [5]): 10%
Visual Weed Control (%) - 20 DAA ECHCG Obs (ECHCG [1]; Daimuron 100 gai/ha alone): 0%
Visual Weed Control (%) - 20 DAA ECHCG Obs (ECHCG [1]; [3]): 0%
Visual Weed Control (%) - 20 DAA ECHCG Obs (ECHCG [1]; Daimuron 200 gai/ha alone): 0%
Visual Weed Control (%) - 20 DAA ECHCG Obs (ECHCG [1]; [4]): 0%
Visual Weed Control (%) - 20 DAA ECHCG Obs (ECHCG [1]; Daimuron 400 gai/ha alone): 0%
Visual Weed Control (%) - 20 DAA ECHCG Obs (ECHCG [1]; [5]): 0%
Visual Weed Control (%) - 20 DAA IPOHE Obs (IPOHE; Daimuron 100 gai/ha alone): 0%
Visual Weed Control (%) - 20 DAA IPOHE Obs (IPOHE; [3]): 0%
Visual Weed Control (%) - 20 DAA IPOHE Obs (IPOHE; Daimuron 200 gai/ha alone): 10%

CC1=C(c2ccccc2)C(=O)N(C(C)(C)c2cc(Cl)cc(Cl)c2)CO1 [Oxaziclomefone, 3-[1-(3,5-dichlorophenyl)-1-methylethyl]-2,3-dihydro-6-methyl-5-phenyl-4H-1,3-oxazin-4-one]
Visual Weed Control (%) - 21 DAA ECHCG Obs (ECHCG [2]): 80%
Visual Weed Control (%) - 22 DAA CYPIR Obs (CYPIR): 0%
Visual Weed Control (%) - 21 DAA CYPRO Obs (CYPRO; Oxaziclomafone 20 gai/ha alone (Table 6)): 0%
Visual Weed Control (%) - 21 DAA CYPRO Obs (CYPRO; Oxaziclomafone 20 gai/ha alone (Table 7)): 0%
Visual Weed Control (%) - 21 DAA CYPRO Obs (CYPRO; Oxaziclomafone 40 gai/ha alone (Table 7)): 0%
Visual Weed Control (%) - 22 DAA SCPJU Obs (SCPJU): 0%
